Data: patent US5229420A, “Ethereal N-terminal aminodiol amino acid derivatives as anti-hypertensive agents” (G. D. Searle & Co., priority 1991, dated 1993)
Where a SMILES comes first, the peptide text is derived from it. [ ]: non-standard residue; d: D form. The star is where a group is joined. Sta = CC(C)C[C@H](N)[C@@H](O)CC(=O)O; Isovaleryl = CC(C)CC(=O)*

Assays:
human renin = molecular target: T1, human renin (Homo sapiens, UniProt P00797); experiment: human renin inhibition test, in vitro (angiotensin I by radioimmunoassay); format: biochemical; conditions: pH 7.4, 37° C., two hours
T1 construct: purchased National Institute for Biological Standards, London
T1 sequence (P00797 67-406): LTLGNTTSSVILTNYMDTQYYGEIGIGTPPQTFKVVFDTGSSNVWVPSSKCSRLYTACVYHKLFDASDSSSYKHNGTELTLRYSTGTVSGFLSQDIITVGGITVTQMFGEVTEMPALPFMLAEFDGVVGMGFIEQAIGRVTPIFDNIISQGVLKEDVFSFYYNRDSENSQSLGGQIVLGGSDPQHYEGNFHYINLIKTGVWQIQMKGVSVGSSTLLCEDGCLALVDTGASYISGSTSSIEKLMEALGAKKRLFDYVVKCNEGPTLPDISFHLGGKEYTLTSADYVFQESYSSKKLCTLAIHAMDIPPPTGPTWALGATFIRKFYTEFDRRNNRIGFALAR
Protocol: Compounds of Formula I were evaluated as inhibitors of human renin in an in vitro assay, as follows: This human renin inhibition test has been previously described in detail [Papaioannou et al., Clinical and Experimental Hypertension, A7(9), 1243-1257 (1985)]. Human renin was obtained from the National Institute for Biological Standards, London. An incubation mixture was prepared containing in total volume of 0.25 mL 100 mM Tris-acetate buffer at pH 7.4, 25×10^-6 Goldblatt units of renin, 0.05 mL of plasma from human volunteers taking oral contraceptives,6.0 mM sodium EDTA, 2.4 mM phenylmethyl sulfonyl fluoride, 1.5 mM 8-hydroxyquinoline, 0.4 mg/mL BSA, and 0.024 mg/mL neomycin sulfate. This mixture was incubated for two hours at 37° C. in the presence or absence of renin inhibitors. The produced angiotensin I was determined by radioimmunoassay (New England Nuclear kit). Test compounds to be assayed were solubilized in DMSO and diluted with 100mM Tris-acetate buffer at pH 7.4 containing 0.5 % bovine serum albumin (BSA) to the appropriate concentration. The final concentration of organic solvent in the reaction mixture was less than 1%. Control incubations at 37° C. were used to correct for effects of organic solvent on renin activity.

Plasma Renin Activity = experiment: Oral Effect of Compounds on Plasma Renin Activity in Sodium Depleted Marmoset; format: in vivo, Common marmosets (Callithrix jacchus); conditions: @ 1 h, 3 mg/kg dose
Protocol: The oral activity of compounds of Formula I was determined in vivo in Marmoset monkeys in accordance with the following procedure: Common marmosets (Callithrix jacchus, Charles River) were placed on a modified high protein low sodium diet (Purina, St. Louis, Mo.) for 1 to 2 weeks. On the day of the test an animal was anesthetized with isoflurane and cannulated in the femoral artery and vein for blood pressure monitoring, intravenous saralasin infusion and blood sampling. After allowing the animal to recover from surgery for 2 hr, saralasin was infused at 1 microgram/min for 15 minutes to confirm that the animal's blood pressure was dependent on angiotensin II levels. The marmoset was allowed to stabilize for 30 min after the saralasin infusion. The test compound was administered orally and blood pressure was monitored for 2 hr. Blood samples were taken in K-EDTA for plasma renin activity before, 30 min, and 1 hr after compound administration.

pepsin = conditions: cited from earlier work
cathepsin D = conditions: cited from earlier work
renin = conditions: cited from earlier work
hog renin = conditions: after injection of hog renin into nephrectomized rats; cited from earlier work

SMILES | IC50 (human renin) | % Reduction of Plasma Renin Activity (Plasma Renin Activity) | other results
COCCN(C)C(=O)O[C@@H](Cc1ccccc1)C(=O)N[C@@H](Cc1cnc[nH]1)C(=O)N[C@@H](CC1CCCCC1)[C@@H](O)[C@@H](O)CC(C)C [Example 8, O-[N-methyl-N-(2-methoxyethyl)aminocarbonyl]-3-L-phenyllactyl-L-histidineamide of (2S,3R,4S)-2-amino-1-cyclohexyl-3,4-dihydroxy-6-methylheptane] | 1.2 nM | 99% | –
COCCN(C)C(=O)O[C@@H](Cc1ccccc1)C(=O)N[C@@H](CC(C)C)C(=O)N[C@@H](CC1CCCCC1)[C@@H](O)[C@@H](O)CC(C)C [Example 9, O-(N-methyl-N-(2-methoxyethyl)aminocarbonyl)-3-L-phenyllactyl-L-leucineamide of (2S,3R,4S)-2-amino-1-cyclohexyl-3,4-dihydroxy-6-methylheptane] | 10 nM | 79% | –
COCCN(C)C(=O)O[C@@H](Cc1ccccc1)C(=O)NC[C@@H](C)C(=O)N[C@@H](CC1CCCCC1)[C@@H](O)[C@@H](O)CC(C)C [Example 13, O-(N-methyl-N-(2-methoxyethyl)aminocarbonyl)-3-L-phenyllactyl-α-(R)-methyl-β-alanineamide of (2S,3R,4S)-2-amino-1-cyclohexyl-3,4-dihydroxy-6-methylheptane] | 62 nM | – | –
CC[C@H](CNC(=O)[C@H](CCc1ccccc1)CC(=O)N(C)CCOC)C(=O)N[C@@H](CC1CCCCC1)[C@@H](O)[C@@H](O)CC(C)C [Example 15, 3-(N-methyl-N-(2-methoxyethyl)aminocarbonyl)-2-(R)-(2-phenylethyl)propionyl-α-(R)-ethyl-β-alanineamide of (2S,3R,4S)-2-amino-1-cyclohexyl-3,4-dihydroxy-6-methylheptane] | – | – | inhibition at 0.05 µM (human renin; @ 5 × 10^-8 M): 17%
COCCN(C)C(=O)C[C@@H](CCc1ccccc1)C(=O)NC[C@@H](C)C(=O)N[C@@H](CC1CCCCC1)[C@@H](O)[C@@H](O)CC(C)C [Example 16, 3-(N-methyl-N-(2-methoxyethyl)aminocarbonyl)-2-(R)-2-phenethylpropionyl-α-(R)-methyl-β-alanineamide of (2S,3R,4S)-2-amino-1-cyclohexyl-3,4-dihydroxy-6-methylheptane] | 45 nM | – | –
CC(C)CC(=O)N[C@H](C(=O)N[C@H](C(=O)N[C@@H](CC(C)C)[C@@H](O)CC(=O)N[C@@H](C)C(=O)N[C@@H](CC(C)C)[C@@H](O)CC(=O)O)C(C)C)C(C)C [pepstatin] (Isovaleryl-VV[Sta]A[Sta]-OH) | – | – | inhibition of pepsin (in words) (pepsin): inhibitor of aspartyl proteases such as pepsin; inhibition of cathepsin D (in words) (cathepsin D): inhibitor of aspartyl proteases such as pepsin, cathepsin D; inhibition of renin (in words) (renin): inhibitor of aspartyl proteases such as pepsin, cathepsin D and renin; reduction of blood pressure in vivo (hog renin): found to reduce blood pressure in vivo
